Read-outs that look alike come from different tables or passages of the source.
Legend:
[1] = target: Cyp D (Homo sapiens, UniProt P30405)
Experimental: (§1) The cyclophilin binding properties of the compounds were assessed by Surface Plasmon Resonance (SPR) against Cyp A, B and D isoforms (Table 1, representative sensorgrams are shown in Figure 3A).[35]
Surface Plasmon Resonance (SPR)
(§2) SPR measurements were performed on a Biacore T200 instrument (Cytiva). Ni2+ -
(§3) nitrilotriacetic acid (NTA) sensor chips, 1-ethyl-3-(3-diaminopropyl) carbodiimide
(§4) hydrochloride (EDC) and N hydroxy succinimide (NHS) were purchased from Cytiva.
(§5) Immobilization and covalent stabilization of His-Cyps Pure His-cyclophilins on the NTA
(§6) sensor chip was performed essentially as described. [Wear et al., 2017, FEBS OpenBio], using
(§7) 200 nM concentrations of each protein, in Running Buffer (PBS, pH7.4; 0.05 % surfactant P20,
(§8) 2% v/v ethanol; 50 µM EDTA), at 30 µl min-1 with 60 second contact times on the activated
(§9) NTA surfaces. This gave signals of 1,921 RU for His-CypA, 1932 RU for His-CypB and 1,397
(§10) RU for His-CypD. Specific surface protein activity was assayed by passing saturating amounts
(§11) activity were obtained for His-CypA, -B and –D, respectively.
Kinetic titration experiments
(§12) Single cycle kinetic titration binding experiments were performed in triplicate at 25 °C. 3-fold
(§13) injected over the sensor surface, at 100 µl min-1 with a 90 s contact time and a 90 s dissociation
(§14) time. The sensor surface was regenerated between experiments by dissociating any formed
(§15) complex in running buffer for at least 1,200 seconds. The apparent on-rate (k+) and off-rate (k-
(§16) ) constants and the equilibrium dissociation constant (Kd) were calculated from reference

[2] = Aqueous kinetic solubility, shake-flask
Experimental: (§17) These experiments were subcontracted to Eurofins.
(§18) Kinetic solubility measurements were carried out using a shake-flask technique. Compounds
(§19) were incubated for 24 hours at room temperature. Aqueous solubility (μM) was determined by
(§20) comparing the peak area of the principal peak in a calibration standard (200 μM) containing
(§21) organic solvent (methanol/water, 60/40, v/v) with the peak area of the corresponding peak in a
(§22) buffer sample. In addition, chromatographic purity (%) was defined as the peak area of the
(§23) principal peak relative to the total integrated peak area in the HPLC chromatogram of the
(§24) calibration standard. A chromatogram of the calibration standard of each test compound, along
(§25) with a UV/VIS spectrum with labeled absorbance maxima, was generated.
(§26) These were measured using a shake-flask technique. Compounds were incubated for 60 min at
(§27) room temperature. The total amount of compound was determined as the peak area of the
(§28) principal peak in a calibration standard (100 μM) containing organic solvent (methanol/water,
(§29) 60/40, v/v). The amount of compound in buffer was determined as the combined, volume
(§30) corrected, and weighted areas of the corresponding peaks in the aqueous phases of three
(§31) organic-aqueous samples of different composition. An automated weighting system was used
(§32) to ensure the preferred use of raw data from those samples with well quantifiable peak signals.
(§33) The amount of compound in organic was calculated by subtraction. Subsequently, Log D was
(§34) calculated as the Log10 of the amount of compound in the organic phase divided by the amount
of compound in the aqueous phase.

[3] = Intrinsic clearance, rat hepatocytes; assay type: in vitro ADME; conditions: hepatocytes; for hepatocyte CLint: Table 3, read-out: Rat Hepatocytes CL; for half-life: read-out: Rat Hepatocytes t1/2
[4] = tested on: Salmonella typhimurium TA1537; assay: Ames fluctuation test TA1537; conditions: for Ames fluctuation test TA1537 +S9: with rat liver S9; for Ames fluctuation test TA1537 –S9: without S9
Experimental: (§35) Bacterial cytotoxicity tests were carried out using Reverted Salmonella typhimurium strains
(§36) (TA98, TA100, TA1535, TA1537) that were incubated 96 hours at 37 Celsius. The results for
(§37) cytotoxicity are expressed as percent of control growth (OD650). Compounds with growth of
(§38) less than 60 % of control are flagged and considered cytotoxic.
(§39) Compounds were incubated for 96 hours at 37°C at 4 different concentrations (5 mM, 10 mM,
(§40) the absence and presence of rat liver S9 microsomes.
(§41) to the reversion of the histidine mutation (as judged by the ratio of OD430/OD570 being greater
(§42) than 1.0) are counted and recorded as positive counts. The significance of the positive counts
(§43) between the treatment (in the presence of test compound) and the control (in the absence of test
(§44) compound) are calculated using the one-tailed Fisher's exact test. Three significance levels are
(§45) Very strong positive, if p < 0.001, denoted as "+++"
(§46) Control experiments were carried out with 2-aminoanthracene (10 mM), 9-aminoacridine (10
(§47) mM), quercetin (30 mM) and streptozocitin (2.5 mM).

[5] = Partition coefficient (Log D), shake-flask; conditions: octanol/water
Experimental: as §17, §18, §19, §20, §21, §22, §23, §24, §25, §26, §27, §28, §29, §30, §31, §32, §33, §34
of compound in the aqueous phase.

[6] = Intrinsic clearance, human hepatocytes; assay type: in vitro ADME; conditions: hepatocytes; for hepatocyte CLint: Table 3, read-out: Human Hepatocytes CL; for half-life: read-out: Human Hepatocytes t1/2
[7] = target: T1, Cyp B (Homo sapiens, UniProt P23284); assay: biochemical
Experimental: as §1
Surface Plasmon Resonance (SPR)
as §2, §3, §4, §5, §6, §7, §8, §9, §10, §11
Kinetic titration experiments
as §12, §13, §14, §15, §16

[8] = target: Cyp A (Homo sapiens, UniProt P62937)
Experimental: as §1
Surface Plasmon Resonance (SPR)
as §2, §3, §4, §5, §6, §7, §8, §9, §10, §11
Kinetic titration experiments
as §12, §13, §14, §15, §16

[9] = Caco-2 permeability; conditions: human, Caco-2
[10] = tested on: Caco-2; assay: Caco-2 permeability; conditions: apparent permeability A-B
[11] = tested on: Salmonella typhimurium strains (TA98, TA100, TA1535, TA1537); assay: Ames tests, all strains (summary in words); conditions: in absence and presence of liver S9 fractions
Experimental: as §35, §36, §37, §38, §39, §40, §41, §42, §43, §44, §45, §46, §47

[12] = tested on: Salmonella typhimurium TA100; assay: Ames fluctuation test TA100; conditions: for Ames fluctuation test TA100 +S9: with rat liver S9; for Ames fluctuation test TA100 –S9: without S9
Experimental: as §35, §36, §37, §38, §39, §40, §41, §42, §43, §44, §45, §46, §47

[13] = Intrinsic clearance, human liver microsomes; assay type: in vitro ADME; conditions: for microsomal CLint: Table 3, read-out: Human Liver microsomes CL; for half-life: read-out: Human Liver microsomes t1/2
[14] = tested on: Salmonella typhimurium TA98; assay: Ames fluctuation test TA98; conditions: for Ames fluctuation test TA98 +S9: with rat liver S9; for Ames fluctuation test TA98 –S9: without S9
Experimental: as §35, §36, §37, §38, §39, §40, §41, §42, §43, §44, §45, §46, §47

[15] = tested on: Salmonella typhimurium TA1535; assay: Ames fluctuation test TA1535; conditions: for Ames fluctuation test TA1535 +S9: with rat liver S9; for Ames fluctuation test TA1535 –S9: without S9
Experimental: as §35, §36, §37, §38, §39, §40, §41, §42, §43, §44, §45, §46, §47

[16] = Intrinsic clearance, rat liver microsomes; assay type: in vitro ADME; conditions: for microsomal CLint: Table 3, read-out: Rat Liver microsomes CL; for half-life: read-out: Rat Liver microsomes t1/2
[17] = tested on: permeabilised human hepatocyte (HepG2) cells; assay: Calcium Retention Capacity assay; assay type: cell-based; conditions: Homo sapiens; digitonin-permeabilised HepG2 cells; read-out: EC50 CRC assay
Experimental: Calcium Retention Capacity Assay
The compounds were prepared as a 10 mM stock solution in 100% DMSO. Subsequent dilutions were made in 100% DMSO and then in assay buffer to 10-fold the final concentration.
HepG2 cells were permeabilized with 100 µM digitonin for 10 min in ice cold buffer containing 1mM EGTA. Following two wash steps to remove the digitonin, the cells were plated into 96 well black and clear plates at 106 cell per well in a 180 µL assay buffer containing 0.5 µM Calcium Green 5N. Compounds dilution were prepared in DMSO to 1000 fold the final concentration, diluted 1:100 in assay buffer and added to the assay as 20 µL per well. The assay buffer contained 5 mM glutamate and 2.5 mM malate. The cell plate was immediately run on the FLIPR Tetratm which added 5 µL of 200 µM (5 µM) calcium chloride every 5 minutes whilst reading the plate every 3 seconds. The area under the curve (AUC) of the raw trace was calculated at each concentration. AUC values were plotted against concentration and EC50 values calculated. Experiments were repeated three times and the EC50 value was determined from a curve fitted to the averaged replicates.

[18] = tested on: iPSC-derived hepatocytes; assay: In vitro hepatic steatosis (MASH) assay; assay type: cell-based; conditions: 48 h treatment
[19] = target: T1, Cyp B; conditions: from SPR Kd
Experimental: as §1
Surface Plasmon Resonance (SPR)
as §2, §3, §4, §5, §6, §7, §8, §9, §10, §11
Kinetic titration experiments
as §12, §13, §14, §15, §16

[20] = Kd Cyp B, SPR-derived dissociation constant, 25 °C

Chain of Cyp D (P30405 42-207): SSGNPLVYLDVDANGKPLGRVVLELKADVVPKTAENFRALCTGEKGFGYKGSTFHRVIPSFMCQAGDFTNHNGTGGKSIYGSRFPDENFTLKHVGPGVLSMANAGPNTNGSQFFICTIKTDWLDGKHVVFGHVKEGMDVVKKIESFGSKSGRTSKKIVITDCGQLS
Chain of Cyp A (P62937 whole entry): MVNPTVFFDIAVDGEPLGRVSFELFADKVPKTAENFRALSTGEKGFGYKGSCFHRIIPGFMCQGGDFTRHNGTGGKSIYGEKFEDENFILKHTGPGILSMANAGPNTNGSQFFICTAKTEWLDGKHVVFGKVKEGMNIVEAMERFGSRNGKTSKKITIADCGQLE
T1 sequence (P23284 32-216 limits assumed): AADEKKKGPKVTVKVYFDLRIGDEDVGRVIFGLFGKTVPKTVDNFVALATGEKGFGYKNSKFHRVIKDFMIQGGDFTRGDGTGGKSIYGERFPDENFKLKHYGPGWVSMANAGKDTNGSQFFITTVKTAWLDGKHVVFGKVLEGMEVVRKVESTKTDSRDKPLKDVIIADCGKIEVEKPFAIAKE

Cn1nnc(CN(Cc2ccc(N)c(Cl)c2)C(=O)NCC(=O)N2CCC[C@@H]2c2ccccc2Br)n1 [Compound 10, 1-[(4-Amino-3-chloro-phenyl)methyl]-1-[(2-methyltetrazol-5-yl)methyl]-3-[2-oxo-2-[(2R)-2-(2-bromophenyl)pyrrolidin-1-yl]ethyl]urea]
Kd [1]: 580 ± 100 nM | solubility at 24 h ([2]; PBS, pH 7.4): > 200 µM | solubility at 24 h ([2]; simulated gastric fluid): > 200 µM | solubility at 24 h ([2]; simulated intestinal fluid): > 200 µM | hepatocyte CLint [3]: < 8 µL/min/1e6 cells | half-life [3]: > 120 min | Ames fluctuation test TA1537 +S9 [4]: neg/neg | Ames fluctuation test TA1537 –S9 [4]: neg/neg | logD at 1 h, 100 µM [5]: 1.74 | hepatocyte CLint [6]: 12 µL/min/1e6 cells | half-life [6]: 85 min | Kd [7]: 35 ± 6 nM | Kd [8]: 200 ± 40 nM | efflux ratio [9]: 1.9 | Caco-2 A-B [10]: 6.6 10^–6 cm/s | Ames result in all strains tested [11]: negative | Ames fluctuation test TA100 +S9 [12]: neg/neg | Ames fluctuation test TA100 –S9 [12]: neg/neg | microsomal CLint [13]: 344 µL/min/mg | half-life [13]: 20 min | Ames fluctuation test TA98 +S9 [14]: neg/neg | Ames fluctuation test TA98 –S9 [14]: neg/neg | Ames fluctuation test TA1535 +S9 [15]: neg/neg | Ames fluctuation test TA1535 –S9 [15]: neg/neg | microsomal CLint [16]: 238 µL/min/mg | half-life [16]: 29 min

C#CCN(Cc1cc(F)c(N)c(F)c1)C(=O)NCC(=O)N1CCC[C@@H]1c1ccccc1SC [Compound 7, 1-[(4-Amino-3,5-difluoro-phenyl)methyl]-3-[2-oxo-2-[(2R)-2-(2-methylsulfanylphenyl)pyrrolidin-1-yl]ethyl]-1-prop-2-ynyl-urea]
Kd [1]: 5850 ± 2000 nM | Kd [7]: 3740 ± 780 nM | Kd [8]: 8750 ± 2900 nM

CSc1ccccc1[C@H]1CCCN1C(=O)CNC(=O)N(Cc1cc(F)c(N)c(F)c1)Cc1nnn(C)n1 [Compound 5, 1-[(4-Amino-3,5-difluoro-phenyl)methyl]-1-[(2-methyltetrazol-5-yl)methyl]-3-[2-oxo-2-[(2R)-2-(2-methylsulfanylphenyl)pyrrolidin-1-yl]ethyl]urea]
Kd [1]: 1010 ± 120 nM | Kd [7]: 200 ± 40 nM | Kd [8]: 1160 ± 200 nM

CSc1ccccc1[C@H]1CCCN1C(=O)CNC(=O)N(Cc1cc(F)c(N)c(F)c1)Cc1cn(C)nn1 [Compound 6, 1-[(4-Amino-3,5-difluoro-phenyl)methyl]-1-[(1-methyltriazol-4-yl)methyl]-3-[2-oxo-2-[(2R)-2-(2-methylsulfanylphenyl)pyrrolidin-1-yl]ethyl]urea]
Kd [1]: 2970 ± 800 nM | Kd [7]: 630 ± 100 nM | Kd [8]: 4600 ± 2400 nM

CC(=O)NN=C1CN(Cc2ccc(N)c(Cl)c2)C(=O)N1CC(=O)N1CCC[C@@H]1c1ccccc1Br [Compound 17, N-[[1-[(4-amino-3-chloro-phenyl)methyl]-3-[2-[(2R)-2-(2-bromophenyl)pyrrolidin-1-yl]-2-oxo-ethyl]-2-oxo-imidazolidin-4-ylidene]amino]acetamide]
Kd [1]: > 10000 nM | Kd [7]: > 10000 nM | Kd [8]: > 10000 nM

CSc1ccccc1[C@H]1CCCN1C(=O)CN1C(=O)N(Cc2ccc(N)c(Cl)c2)CC1=NNC(C)=O [Compound 16, N-[[1-[(4-amino-3-chloro-phenyl)methyl]-2-oxo-3-[2-oxo-2-[(2R)-2-(2-methylsulfanylphenyl)pyrrolidin-1-yl]ethyl]imidazolidin-4-ylidene]amino]acetamide]
Kd [1]: 9100 ± 900 nM | Kd [7]: 4500 ± 500 nM | Kd [8]: 7100 ± 1250 nM

CSc1ccccc1[C@H]1CCCN1C(=O)CNC(=O)N(Cc1cnc(N)c(Cl)c1)Cc1nnc(C)s1 [Compound 14, 1-[(6-Amino-5-chloro-3-pyridyl)methyl]-1-[(5-methyl-1,3,4-thiadiazol-2-yl)methyl]-3-[2-oxo-2-[(2R)-2-(2-methylsulfanylphenyl)pyrrolidin-1-yl]ethyl]urea]
Kd [1]: 2400 ± 430 nM | Kd [7]: 92 ± 75 nM | Kd [8]: 960 ± 130 nM

CSc1ccccc1[C@H]1CCCN1C(=O)CNC(=O)N(Cc1ccc(N)cc1)Cc1nnn(C)n1 [Compound 2, 1-[(4-Aminophenyl)methyl]-1-[(2-methyltetrazol-5-yl)methyl]-3-[2-oxo-2-[(2R)-2-(2-methylsulfanylphenyl)pyrrolidin-1-yl]ethyl]urea]
Kd [1]: 80 ± 10 nM | Kd [7]: 12 ± 4 nM | Kd [8]: 90 ± 10 nM | EC50 [17]: 1390 nM

CSc1ccccc1[C@H]1CCCN1C(=O)CN1C(=O)N(Cc2cnc(N)c(Cl)c2)CC1=NNC(C)=O [Compound 18, N-[[1-[(6-amino-5-chloro-3-pyridyl)methyl]-3-[2-[(2R)-2-(2-methylsulfanylphenyl) Pyrrolidin-1-yl]-2-oxo-ethyl]-2-oxo-imidazolidin-4-ylidene]amino]acetamide]
Kd [1]: > 10000 nM | Kd [7]: > 10000 nM | Kd [8]: > 10000 nM

CSc1ccccc1[C@H]1CCCN1C(=O)CNC(=O)N(Cc1cnc(N)nc1)Cc1nnc(C)s1 [Compound 13, 1-[(2-Aminopyrimidin-5-yl)methyl]-1-[(5-methyl-1,3,4-thiadiazol-2-yl)methyl]-3-[2-oxo-2-[(2R)-2-(2-methylsulfanylphenyl)pyrrolidin-1-yl]ethyl]urea]
Kd [1]: 1200 ± 300 nM | Kd [7]: 184 ± 7 nM | Kd [8]: 670 ± 100 nM

CC(=O)NN=C1CN(Cc2cnc(N)c(Cl)c2)C(=O)N1CC(=O)N1CCC[C@@H]1c1ccccc1Br [Compound 19, N-[[1-[(6-amino-5-chloro-3-pyridyl)methyl]-2-oxo-3-[2-oxo-2-[(2R)-2-(2-bromophenyl) Pyrrolidin-1-yl]ethyl]imidazolidin-4-ylidene]amino]acetamide]
Kd [1]: > 10000 nM | Kd [7]: > 10000 nM | Kd [8]: > 10000 nM

CSc1ccccc1[C@H]1CCCN1C(=O)CNC(=O)N(Cc1cnc(N)nc1)Cc1ncc(C)s1 [Compound 12, 1-[(2-Aminopyrimidin-5-yl)methyl]-1-[(5-methylthiazol-2-yl)methyl]-3-[2-oxo-2-[(2R)-2-(2-methylsulfanylphenyl)pyrrolidin-1-yl]ethyl]urea]
Kd [1]: 1500 ± 500 nM | solubility at 24 h ([2]; PBS, pH 7.4): > 200 µM | solubility at 24 h ([2]; simulated gastric fluid): > 200 µM | solubility at 24 h ([2]; simulated intestinal fluid): > 200 µM | hepatocyte CLint [3]: 12 µL/min/1e6 cells | half-life [3]: 84 min | effect on hepatocyte overall lipid levels and lipid droplet size (in words) [18]: lack of potency | EC50 ([18]; Hepatocyte, 48 h, read-out: EC50 MASH assay): > 10000 nM | Ames fluctuation test TA1537 +S9 [4]: neg/neg | Ames fluctuation test TA1537 –S9 [4]: neg/neg | selectivity for Cyp B over Cyp A [19]: 80 fold | logD at 1 h, 100 µM [5]: 1.27 | hepatocyte CLint [6]: 11 µL/min/1e6 cells | half-life [6]: 94 min | Kd [7, 20]: 88 ± 20 nM | Kd [8]: 7300 ± 1000 nM | efflux ratio [9]: 16 | Caco-2 A-B [10]: 0.8 10^–6 cm/s | Ames result in all strains tested [11]: negative | Ames fluctuation test TA100 +S9 [12]: neg/neg | Ames fluctuation test TA100 –S9 [12]: neg/neg | microsomal CLint [13]: 604 µL/min/mg | half-life [13]: 11 min | Ames fluctuation test TA98 +S9 [14]: neg/neg | Ames fluctuation test TA98 –S9 [14]: neg/neg | Ames fluctuation test TA1535 +S9 [15]: neg/neg | Ames fluctuation test TA1535 –S9 [15]: neg/neg | microsomal CLint [16]: 449 µL/min/mg | half-life [16]: 15 min

CSc1ccccc1[C@@H]1CCCN1C(=O)CNC(=O)N(Cc1ccc2c(c1)[C@@H]1C[C@@H](N2)[C@H](O)CO1)Cc1nnn(C)n1 [Compound 4, 1-[[(1S,9R,10S)-10-Hydroxy-12-oxa-8-azatricyclo[7.3.1.0,^27]trideca-2,4,6-trien-4-yl]methyl]-3-[2-[(2S)-2-(2-methylsulfanylphenyl)pyrrolidin-1-yl]-2-oxo-ethyl]-1-[(2-methyltetrazol-5-yl)methyl]urea]
Kd [1]: 400 ± 30 nM | Kd [7, 20]: 420 ± 80 nM | Kd [8]: 310 ± 40 nM | EC50 [17]: 4120 nM

— article PMC11956012, “Optimization of Cyclophilin B-Targeted Tri-vector Inhibitors for Novel MASH Treatments” (Journal of Medicinal Chemistry, 2025)
